Results reported in ChEMBL document CHEMBL3045517, “Tolerance of tomato, pepper and potato to pre-emergence applications of saflufenacil” (Crop Prot, 2012).

Columns and labels:
Assay type in all cases: organism-based
Solanum tuberosum [1] = assay: Toxicity against Solanum tuberosum Superior (potato) assessed as decrease in crop injury at 100 g ai/ha preemergence application measured at 28 days after crop emergence; set-up: scale not given: the % may be the effect or the level left; settings: in vivo, other, 672 h
Capsicum annuum [2] = assay: Toxicity against Capsicum annuum Socrates (pepper) assessed as reduction in plant dry weight at 100 g ai/ha pretransplant application measured at 28 days after crop transplanting; set-up: scale not given: the % may be the effect or the level left; settings: in vivo, other, 672 h
Capsicum annuum [3] = assay: Toxicity against Capsicum annuum Socrates (pepper) assessed as dose required to cause 5% growth reduction applied within 3 days prior to transplantation measured at 28 days after crop transplanting; settings: in vivo, 672 h
Solanum lycopersicum [4] = assay: Toxicity against Solanum lycopersicum (tomato) H9909 assessed as decrease in marketable yield at 100 g ai/ha pretransplant application measured at maturity of the crop; set-up: scale not given: the % may be the effect or the level left; settings: in vivo, other
Solanum lycopersicum [5] = assay: Toxicity against Solanum lycopersicum (tomato) H9909 assessed as dose required to cause 5% yield loss applied within 3 days prior to transplantation measured at maturity of the crop; settings: in vivo, 72 h
Solanum lycopersicum [6] = assay: Toxicity against Solanum lycopersicum (tomato) H9909 assessed as reduction in plant dry weight at 100 g ai/ha pretransplant application measured at 28 days after crop transplanting; set-up: scale not given: the % may be the effect or the level left; settings: in vivo, other, 672 h
Solanum lycopersicum [7] = assay: Toxicity against Solanum lycopersicum (tomato) H9909 assessed as dose required to cause 5% visible injury applied within 3 days prior to transplantation measured at 28 days after crop transplanting; settings: in vivo, 672 h
Solanum tuberosum [8] = assay: Toxicity against Solanum tuberosum Superior (potato) assessed as decrease in marketable yield at 100 g ai/ha preemergence application measured at maturity of the crop; set-up: scale not given: the % may be the effect or the level left; settings: in vivo, other
Solanum tuberosum [9] = assay: Toxicity against Solanum tuberosum Superior (potato) assessed as dose required to cause 5% visible injury applied within 3 days after seeding measured at 28 days after crop emergence; settings: in vivo, 672 h
Solanum tuberosum [10] = assay: Toxicity against Solanum tuberosum Superior (potato) assessed as dose required to cause 5% growth reduction applied within 3 days after seeding measured at 28 days after crop emergence; settings: in vivo
Capsicum annuum [11] = assay: Toxicity against Capsicum annuum Socrates (pepper) assessed as decrease in crop injury at 100 g ai/ha pretransplant application measured at 28 days after crop transplanting; set-up: scale not given: the % may be the effect or the level left; settings: in vivo, other, 672 h
Solanum tuberosum [12] = assay: Toxicity against Solanum tuberosum Superior (potato) assessed as reduction in plant dry weight at 100 g ai/ha preemergence application measured at 28 days after crop emergence; set-up: scale not given: the % may be the effect or the level left; settings: in vivo, other, 672 h
Capsicum annuum [13] = assay: Toxicity against Capsicum annuum Socrates (pepper) assessed as dose required to cause 5% yield loss applied within 3 days prior to transplantation measured at maturity of the crop; settings: in vivo, 72 h
Solanum lycopersicum [14] = assay: Toxicity against Solanum lycopersicum (tomato) H9909 assessed as decrease in crop injury at 100 g ai/ha pretransplant application measured at 28 days after crop transplanting; set-up: scale not given: the % may be the effect or the level left; settings: in vivo, other, 672 h
Solanum lycopersicum [15] = assay: Toxicity against Solanum lycopersicum (tomato) H9909 assessed as dose required to cause 5% growth reduction applied within 3 days prior to transplantation measured at 28 days after crop transplanting; settings: in vivo, 672 h
Solanum tuberosum [16] = assay: Toxicity against Solanum tuberosum Superior (potato) assessed as dose required to cause 5% yield loss applied within 3 days after seeding measured at maturity of the crop; settings: in vivo, 72 h
Capsicum annuum [17] = assay: Toxicity against Capsicum annuum Socrates (pepper) assessed as dose required to cause 5% visible injury applied within 3 days prior to transplantation measured at 28 days after crop transplanting; settings: in vivo, 672 h
Capsicum annuum [18] = assay: Toxicity against Capsicum annuum Socrates (pepper) assessed as decrease in marketable yield at 100 g ai/ha pretransplant application measured at maturity of the crop; set-up: scale not given: the % may be the effect or the level left; settings: in vivo, other
Capsicum annuum [19] = assay: Toxicity against Capsicum annuum (pepper) assessed as crop injury at 420 g ai/ha pretransplant application; settings: in vivo, other

SMILES | Activity (Solanum tuberosum [1]) [%] | Activity (Capsicum annuum [2]) [%] | Activity (Capsicum annuum [3]) [gAi/ha] | Activity (Solanum lycopersicum [4]) [%] | Activity (Solanum lycopersicum [5]) [gAi/ha] | Activity (Solanum lycopersicum [6]) [%] | Activity (Solanum lycopersicum [7]) [gAi/ha] | Activity (Solanum tuberosum [8]) [%] | Activity (Solanum tuberosum [9]) [gAi/ha] | Activity (Solanum tuberosum [10]) [gAi/ha] | Activity (Capsicum annuum [11]) [%] | Activity (Solanum tuberosum [12]) [%] | Activity (Capsicum annuum [13]) [gAi/ha] | Activity (Solanum lycopersicum [14]) [%] | Activity (Solanum lycopersicum [15]) [gAi/ha] | Activity (Solanum tuberosum [16]) [gAi/ha] | Activity (Capsicum annuum [17]) [gAi/ha] | Activity (Capsicum annuum [18]) [%] | Activity (Capsicum annuum [19]) [%]
CC(C)N(C)S(=O)(=O)NC(=O)c1cc(-n2c(=O)cc(C(F)(F)F)n(C)c2=O)c(F)cc1Cl [SAFLUFENACIL] | 5 | 82 | 5.6 | 57 | 8.8 | 73 | 17.5 | 18 | 105 | 15.5 | 32 | 30 | 7 | 29 | 6.7 | 19.7 | 15.4 | 69 | 
Cc1nn(-c2cc(NS(C)(=O)=O)c(Cl)cc2Cl)c(=O)n1C(F)F [SULFENTRAZONE] |  |  |  |  |  |  |  |  |  |  |  |  |  |  |  |  |  |  | 65
